According to ChEMBL document CHEMBL1201862, “PubChem BioAssay data set” (2004):
Values belong to the molecule of their own block, whether it stands above or below them. Activity calls are given as the source filed them.

Columns and labels:
Protein Wnt-3a = Protein Wnt-3a (Mus musculus, UniProt P27467); assay: antagonism of Wnt3a pathway luciferase reporter – Wnt-LIGHT cells, luminescence, selectivity assay for Gli-SUFU antagonist project, dose response (AID 651570); format: functional; conditions: read-out: IC50_Mean;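 note: Wnt-LIGHT reporter cells stimulated with conditioned medium from Wnt3a-producing cells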
Protein Wnt-3a, sequence (P27467 whole entry): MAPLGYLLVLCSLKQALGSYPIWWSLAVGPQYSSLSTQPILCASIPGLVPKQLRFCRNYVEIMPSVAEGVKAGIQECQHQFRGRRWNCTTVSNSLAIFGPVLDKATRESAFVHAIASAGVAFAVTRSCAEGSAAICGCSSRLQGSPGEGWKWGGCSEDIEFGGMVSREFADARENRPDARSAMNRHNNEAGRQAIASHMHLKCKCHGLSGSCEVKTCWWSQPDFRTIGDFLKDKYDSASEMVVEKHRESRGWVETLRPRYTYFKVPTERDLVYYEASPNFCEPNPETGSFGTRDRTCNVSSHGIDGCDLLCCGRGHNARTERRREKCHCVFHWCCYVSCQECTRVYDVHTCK

INS1 = assay: INS-1E survival protection against cytokine death – cell-based, luminescence, retest, dose response (AID 449756); format: functional; conditions: Rattus norvegicus;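 note: cell death triggered by IL-1 beta plus TNF-alpha plus IFN-gamma mixture; protective hits raise ATP signal compared with cytokine alone wells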
[1] = blockers of CRF-binding protein–CRF-R2 complex – cell-based, uHTS hits, 384-well, dose response (AID 651639); format: functional, Homo sapiens; conditions: read-out: IC50_Mean
[2] = biological target: T1, Corticotropin-releasing factor receptor 2/Corticotropin-releasing factor-binding protein (Homo sapiens, UniProt P24387+Q13324); assay: activators of CRF receptor 2 with binding protein – uHTS hits, confirmation (AID 602473); format: functional; conditions: read-out: EC50_Mean
T1 sequence (Q13324 whole entry): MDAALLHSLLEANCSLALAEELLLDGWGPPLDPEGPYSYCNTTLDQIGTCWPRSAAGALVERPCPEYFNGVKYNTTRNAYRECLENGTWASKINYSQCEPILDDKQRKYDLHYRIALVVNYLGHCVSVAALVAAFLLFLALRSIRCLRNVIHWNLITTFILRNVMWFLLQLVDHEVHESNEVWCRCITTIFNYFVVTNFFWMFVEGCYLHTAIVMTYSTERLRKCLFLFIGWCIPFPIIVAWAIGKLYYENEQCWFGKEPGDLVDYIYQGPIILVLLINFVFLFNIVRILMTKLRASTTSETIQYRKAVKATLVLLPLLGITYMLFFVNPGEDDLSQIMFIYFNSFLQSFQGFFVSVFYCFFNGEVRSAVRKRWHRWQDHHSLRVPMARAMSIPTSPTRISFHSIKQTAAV
T1 sequence (P24387 whole entry): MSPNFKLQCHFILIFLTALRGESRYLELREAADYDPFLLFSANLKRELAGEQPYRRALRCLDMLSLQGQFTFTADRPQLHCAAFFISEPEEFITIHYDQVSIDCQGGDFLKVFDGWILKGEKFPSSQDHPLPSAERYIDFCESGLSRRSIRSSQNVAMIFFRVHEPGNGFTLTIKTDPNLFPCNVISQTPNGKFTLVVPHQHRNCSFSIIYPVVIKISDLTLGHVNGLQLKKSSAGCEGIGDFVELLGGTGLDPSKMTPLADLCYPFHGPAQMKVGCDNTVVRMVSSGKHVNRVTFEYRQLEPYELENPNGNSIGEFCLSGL

[3] = biological target: T1, Corticotropin-releasing factor receptor 2/Corticotropin-releasing factor-binding protein; assay: Dose Response confirmation of uHTS hits for small molecule antagonists of the CRF-binding protein and CRF-R2 receptor complex.; format: functional; conditions: read-out: IC50_Mean
Melanocortin receptor 4 = Melanocortin receptor 4 (Homo sapiens, UniProt P32245); assay: inhibitors of MC4R cAMP signaling – cell-based, TR-FRET, biased antagonists, dose response (AID 602298); format: functional;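 note: antagonist potency against agonist-stimulated cAMP production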
Melanocortin receptor 4, sequence (P32245 whole entry): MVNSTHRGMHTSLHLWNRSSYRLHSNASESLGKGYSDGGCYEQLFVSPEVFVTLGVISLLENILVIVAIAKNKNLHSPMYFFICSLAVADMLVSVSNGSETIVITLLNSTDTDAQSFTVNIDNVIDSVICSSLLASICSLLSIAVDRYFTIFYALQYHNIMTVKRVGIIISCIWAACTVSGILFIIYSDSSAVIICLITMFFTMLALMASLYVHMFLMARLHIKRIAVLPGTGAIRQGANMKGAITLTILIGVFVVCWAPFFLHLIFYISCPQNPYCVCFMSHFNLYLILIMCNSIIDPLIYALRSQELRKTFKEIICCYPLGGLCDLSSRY

[4] = cAMP pathway inhibition in counterscreen cell line – TR-FRET cAMP detection, counter-screen for MC4R biased antagonist project, dose response (AID 602305); format: functional, cell-based;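 note: U2OS cells stimulated with forskolin near its EC80 as the cAMP inducer; potency is for inhibition of forskolin-stimulated cAMP signaling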
[5] = biological target: T2, Low molecular weight phosphotyrosine protein phosphatase (Homo sapiens, UniProt P24666); format: functional; conditions: read-out: IC50_Mean
T2 sequence (P24666 whole entry): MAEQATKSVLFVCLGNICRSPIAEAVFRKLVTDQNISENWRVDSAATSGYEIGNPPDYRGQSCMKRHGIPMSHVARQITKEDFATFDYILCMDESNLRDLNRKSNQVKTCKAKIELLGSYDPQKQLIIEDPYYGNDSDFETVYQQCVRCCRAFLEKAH

[6] = biological target: T2, Low molecular weight phosphotyrosine protein phosphatase; format: functional; conditions: read-out: IC50_Mean; remark: listed apart in the source
[7] = mammalian cell viability loss – Alamar Blue, dry powder, cytotoxicity control for antifungal single agent project, dose response (AID 602188); format: functional, cell-based
[8] = biological target: T3, Sentrin-specific protease 1 (Homo sapiens, UniProt Q9P0U3); assay: Dose response confirmation of small molecule inhibitors of the catalytic domain of the SUMO protease, SENP1 in a FRET assay.; format: functional; conditions: read-out: IC50_Mean
T3 sequence (Q9P0U3 whole entry, the tested form may be a part): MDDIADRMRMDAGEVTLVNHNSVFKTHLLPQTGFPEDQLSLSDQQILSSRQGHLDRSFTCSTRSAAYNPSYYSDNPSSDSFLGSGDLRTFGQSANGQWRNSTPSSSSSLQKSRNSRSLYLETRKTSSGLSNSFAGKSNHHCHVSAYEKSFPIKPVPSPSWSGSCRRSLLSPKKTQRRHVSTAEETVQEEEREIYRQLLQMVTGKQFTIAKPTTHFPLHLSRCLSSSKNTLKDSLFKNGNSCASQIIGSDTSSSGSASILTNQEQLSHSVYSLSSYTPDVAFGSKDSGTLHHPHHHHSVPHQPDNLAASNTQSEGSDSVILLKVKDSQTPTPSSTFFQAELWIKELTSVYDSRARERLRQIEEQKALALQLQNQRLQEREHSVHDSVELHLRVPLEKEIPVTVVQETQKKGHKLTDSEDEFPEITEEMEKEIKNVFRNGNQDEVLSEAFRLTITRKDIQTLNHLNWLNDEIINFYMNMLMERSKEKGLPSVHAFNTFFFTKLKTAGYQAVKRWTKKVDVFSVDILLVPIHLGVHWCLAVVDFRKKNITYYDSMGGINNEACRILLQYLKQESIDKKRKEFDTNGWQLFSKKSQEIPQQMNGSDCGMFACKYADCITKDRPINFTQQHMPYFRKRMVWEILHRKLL

[9] = biological target: T3, Sentrin-specific protease 1; assay: SENP1 catalytic domain blockers, concentration series – biochemical, kinetic FRET, dose response (AID 651697); format: functional; conditions: read-out: IC50_Mean

SMILES: CCN(CC)C(=O)c1ccc(S(=O)(=O)N2CCC(c3nc4ccccc4s3)CC2)cc1
IC50 (Protein Wnt-3a): 39.7 µM (inactive) | AC50 (INS1): 5.69 µM (active)

SMILES: O=S(=O)(Nc1nc2ccccc2s1)c1ccc(Cl)s1
IC50 [1]: 8.22 µM (active) | EC50 [2]: > 53 µM (inactive) | IC50 [3]: 6.02 µM (active) | AC50 (INS1): 31.8 µM (active)

SMILES: CCN(C(=O)COC(=O)CSc1ccc(C(N)=O)cc1[N+](=O)[O-])C1CCCCC1
IC50 (Melanocortin receptor 4): > 64.6 µM (inactive) | IC50 [4]: > 64.6 µM (inactive)

IC50 [5]: 11.8 µM (active) | IC50 [6]: 24.6 µM (inactive)
SMILES: O=C(OCCNc1nc(-c2ccccc2)nc2ccccc12)c1ccncc1

SMILES: Oc1c(C(c2ccccc2Cl)N2CCCCC2)ccc2cccnc12 (stereo not drawn)
AC50 [7]: 5.69 µM (active)

IC50 [8]: 19.9 µM (active) | IC50 [9]: 68.8 µM (inactive)
SMILES: COc1cc(NC2=Nc3cccc4cccc2c34)cc(OC)c1OC
